Results taken from paper PMC4746011, “IspH–RPS1 and IspH–UbiA: “Rosetta stone” proteins” (Chemical Science, 2015).
Read-outs that look alike come from different tables or passages of the source.

B1: CthIspH–RPS1 (Acetivibrio thermocellus ATCC 27405) (protein)
chain: MEIIVAKSAGFCFGVSNAVKTVNNLLENQKEPIYTYGPIIHNAQVVDLFTSKGVKKIDDIDEAEPNGHIVIRAHGVTPDIYKKISDKGLILEDATCPYVKKIHNLVKEKSEEGYKIIIVGDRNHPEVIGINGWCNNQAYIVDSVDDVEKFPTSDEKVCVVAQTTITNEKWLEVNTALKKKFKNILKFDTICSATSRRQNEAEEIAKNVDMMIIIGGKNSSNTQKLYDICKKHCNLTYKIETSGDLPPVDIKKIKKVGISAGASTPDWVIEEVIKKMSELNKQGMVDILENDGEIDFANAFENSFVRIHAGDTVKGKIIGFNSNEVFVDLGYKADGIIPLEEYTDDPNFNIEKEVKIGEEVEVLVEMVNDGEGNVRLSKRKVDAIKSWDDIVKAYENKTPVNAYVVEVVKGGVIASYKGVRIFVPASQVSDRYVKDLNEFLKRSITVRILELNEKRRKVVGSARVIIEEEKEALANRTWNSMEVGKVFKGTVKSLTDFGAFVDIGGVDGLIHISELSWTRVKHPSEVLKVGDEVEVTVLEFDKEKKKVSLGYRKMEDNPWYKIEEKYKVGDVVKVTVLRFAPFGAFVELEKGVDGLVHISQISSKRLAKVEDALEIGMKVDAKIIEVDGENKKISLSIKEVMPIDPPSSKSESKAKDGSEAKETSANTEEEAEPTEHREDMNVTVEDLVSKTTQS

Assays:
CthIspH–RPS1 [1] = target: T1, CthIspH–RPS1 (Acetivibrio thermocellus (Clostridium thermocellum), UniProt A3DDC0); assay: CthIspH–RPS1 Michaelis–Menten kinetics (methyl viologen assay); type: biochemical; conditions: substrate HMBPP, room temperature
Method: (§1) The CthIspH kinetics and inhibition assays were performed by using the methyl viologen method described previously.[27] […] The reactions were monitored at 606 nm. K m and k cat were fitted by using a Michaelis–Menten relation in Origin 9.1. The extinction coefficient for the methyl viologen radical cation at 606 nm was taken to be 13 700 M^–1 cm^–1.[28]
Substrate consumption and product formation were also confirmed by LC-MS (Fig. S3 ^†) and NMR analysis.

[2] = system: IspH from the thermophile Aquifex aeolicus; set-up: method as in PMID 24481599; conditions: A. aeolicus IspH; cited from earlier work
CthIspH–RPS1 [3] = target: T1, CthIspH–RPS1; assay: CthIspH–RPS1 inhibition assay (methyl viologen method); type: biochemical; on IC50 against CthIspH–RPS1: 40 nM enzyme, 50 µM HMBPP, 40 µM dithionite
Method: as §1

AaIspH = system: AaIspH; set-up: method as in PMID 24481599, PMID 20426416; conditions: Fig. 5a bottom value; read-out: IC50 against AaIspH; cited from earlier work
[4] = substrate: C/C(=C\COP(=O)(O)OP(=O)(O)O)CO; assay: purified protein, by the assay type; conditions: other: substrate HMBPP, room temperature
[5] = read-out: IC50 against CthIspH–RPS1

Molecule	IC50 (CthIspH–RPS1 [3]; [5])	also measured
C/C(=C\COP(=O)(O)OP(=O)(O)O)CO [HMBPP, (E)-1-hydroxy-2-methyl-but-2-enyl 4-diphosphate]	–	kcat (CthIspH–RPS1 [1]): 56 min^–1; Km [2]: 7 µM; kcat [2]: 1.0 s^–1
O=P(O)(O)OP(=O)(O)OCCc1cccnc1 [Compound 8]	240 µM	–
O=P(O)(O)OP(=O)(O)OCc1ccncc1 [Compound 10]	120 µM	–
CC#CCOP(=O)(O)OP(=O)(O)O [Compound 12]	760 µM	–
C#CCCOP(=O)(O)OP(=O)(O)O [Compound 5]	3.3 µM	IC50 (AaIspH): 0.45 µM
O=P(O)(O)OP(=O)(O)OCc1cccnc1 [Compound 7]	150 µM	–
C#CCCCOP(=O)(O)OP(=O)(O)O [Compound 6]	47 µM	–
O=P(O)(O)OP(=O)(O)SCC#CCO [Compound 13, 4-Hydroxybut-2-ynyl-S-thiolodiphosphate]	–	IC50 (CthIspH–RPS1 [3]): 3.8 µM; activity against CthIspH–RPS1 (in words) (CthIspH–RPS1 [3]; inhibition of catalytic activity): very active
O=P(O)(O)OP(=O)(O)OCCCc1cccnc1 [Compound 9]	490 µM	–
O=P(O)(O)OP(=O)(O)OCC#CCO [Compound 11]	92 µM	–
C#CCOP(=O)(O)OP(=O)(O)O [Compound 4]	8.8 µM	–
B1	–	Km [4]: 15 µM
